Results: patent publication US20140005234A1, “INSECTICIDAL N-SUBSTITUTED SULFILIMINE AND SULFOXIMINE PYRIDINE N-OXIDES” (Dow AgroSciences LLC, priority 2012, published 2014)

What follows are compounds tested on Green Peach Aphid (GPA) (assay: Insecticidal testing for Green Peach Aphid (GPA), foliar spray on infested cabbage seedlings). Conditions: 200 ppm test compound sprayed on cabbage seedlings infested with GPA; graded after three days; Abbott-corrected % control, qualitative rating.
Type: in vivo
Design: key to GPA Control @ 200 ppm: A: 80-100; B: More than 0-Less than 80; C: Not Tested; D: No activity noticed in this bioassay
Description: Insecticidal Testing for Green Peach Aphid (GPA) GPA is the most significant aphid pest of peach trees, causing decreased growth, shriveling of the leaves, and the death of various tissues. It is also hazardous because it acts as a vector for the transport of plant viruses, such as potato virus Y and potato leafroll virus to members of the nightshade/potato family Solanaceae, and various mosaic viruses to many other food crops. GPA attacks such plants as broccoli, burdock, cabbage, carrot, cauliflower, daikon, eggplant, green beans, lettuce, macadamia, papaya, peppers, sweet potatoes, tomatoes, watercress, and zucchini, among other plants. GPA also attacks many ornamental crops such as carnation, chrysanthemum, flowering white cabbage, poinsettia, and roses. GPA has developed resistance to many pesticides. Certain compounds disclosed in this document were tested against GPA using procedures described as follows. Cabbage seedlings grown in 3-inch pots, with 2-3 small (3-5 cm) true leaves, were used as test substrate. The seedlings were infested with 20-50 GPA (wingless adult and nymph stages) one day prior to chemical application. Four pots with individual seedlings were used for each treatment. Test compounds (2 mg) were dissolved in 2 mL of acetone/methanol (1:1) solvent, forming stock solutions of 1000 ppm test compound. The stock solutions were diluted 5× with 0.025% Tween® 20 (Sigma-Aldrich, Inc., St. Louis, Mo.) in H2O to obtain the solution at 200 ppm test compound. A hand-held aspirator-type sprayer was used for spraying a solution to both sides of […] leaves until runoff. Reference plants (solvent check) were sprayed with the diluent only containing 20% by volume of acetone/methanol (1:1) solvent. Treated plants were held in a holding room for three days at approximately 25° C. and ambient relative humidity (RH) prior to grading. Evaluation was conducted by counting the number of live aphids per plant under a microscope. Percent Control was measured by using Abbott's correction formula (W. S. Abbott, “A Method of Computing the Effectiveness of an Insecticide” J. Econ. Entomol. 18 (1925), pp. 265-267) as follows: Corrected % Control=100*(X−Y)/X • where • X=No. of live aphids on solvent check plants and • Y=No. of live aphids on treated plants The results provided in Table 6 below are based on the qualitative ratings set forth in Table 5.

Compound	GPA Control @ 200 ppm
CC(c1ccc(Cl)[n+]([O-])c1)S(C)(=O)=NC(N)=O (stereo not shown) [(23)]	D
CS(=O)(Cc1ccc(C(F)(F)F)[n+]([O-])c1)=NC(N)=O (stereo not shown) [(22)]	D
CS(=O)(Cc1ccc(Cl)[n+]([O-])c1)=N[N+](=O)[O-] (stereo not shown) [(20)]	D

Same assay, conditions: Myzus persicae, foliar, 72 h; 200 ppm test compound sprayed on cabbage seedlings infested with GPA; graded after three days; Abbott-corrected % control, qualitative rating

Compound	pest or weed control at 200 ppm [%]
CC(c1ccc(Cl)[n+]([O-])c1)S(C)(=O)=N[N+](=O)[O-] (stereo not shown) [(18)]	0 to 80
CC(c1ccc(C(F)(F)F)[n+]([O-])c1)S(C)(=O)=NC#N (stereo not drawn) [Compound (6), N-Cyano-S-[1-(6-trifluoromethyl-3-pyridinyl)ethyl]-S-methylsulfoximine N-oxide]	80 to 100
CC(c1ccc(Cl)[n+]([O-])c1)S(C)(=O)=NC#N (stereo not shown) [(19)]	80 to 100
CC(c1ccc(C(F)(F)F)[n+]([O-])c1)S(C)(=O)=N[N+](=O)[O-] (stereo not shown) [(21)]	80 to 100
CC(C)(c1ccc(C(F)(F)F)[n+]([O-])c1)S(C)(=O)=NC#N (stereo not shown) [(10)]	80 to 100
CC(c1ccc(C(F)(F)F)[n+]([O-])c1)/S(C)=N\C#N (stereo not shown) [(5)]	80 to 100
CS(=O)(Cc1ccc(C(F)(F)F)[n+]([O-])c1)=NC#N (stereo not shown) [(9), [methyl(oxido){[1-oxido-6-(trifluoromethyl)pyridin-3-yl]methyl}-λ^6-sulfanylidene]cyanamide]	80 to 100
